From patent publication US10765114B2, “4-amino-6-(pyridyl and 2-substitutedphenyl)-picolinates and 6-amino-2-(pyridyl and 2-substitutedphenyl)-pyrimidine-4-carboxylates and their use as herbicides” (Dow AgroSciences LLC, priority 2013, dated 2020)
Read-outs that look alike come from different tables or passages of the source.

Tests used:
[1] = tested on: Key Broadleaf Weed and Crop Species; assay: Post-Emergent Test II (Table 5); assay type: in vivo; conditions: post-emergence, 336 h; for pest or weed control at 70 g/ha: application rate 70 (kg ai/ha; footnote: g ai/ha); for pest or weed control at 140 g/ha: application rate 140 (kg ai/ha; footnote: g ai/ha)
Procedure, shortened: (§1)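 Visual injury ratings (0 = no injury, 100 = complete kill) were taken 14 days after treatment relative to untreated plants. Seedlings at the first or second true leaf stage received an overhead spray at 187 L/ha, and solvent-blank sprayed plants served as controls.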

[2] = tested on: Key Grass and Sedge Weeds as well as Grass Crops; assay: Post-Emergent Test II (Table 6); assay type: in vivo; conditions: post-emergence, 336 h, 14 days after application; for pest or weed control at 70 g/ha: 70 g ai/ha; for pest or weed control at 140 g/ha: 140 g ai/ha
Procedure, shortened: as §1

[3] = Abutilon theophrasti, ABUTH: velvetleaf (Abutilon theophrasti), read-out: Visual Growth Reduction (%) 14 Days After Application ABUTH
[4] = Brassica napus, BRSSS: oilseed rape, canola (Brassica napus), read-out: Visual Growth Reduction (%) 14 Days After Application BRSSS
[5] = Chenopodium album, CHEAL: lambsquarters (Chenopodium album), read-out: Visual Growth Reduction (%) 14 Days After Application CHEAL
[6] = Euphorbia heterophylla, EPHHL: wild poinsettia (Euphorbia heterophylla), read-out: Visual Growth Reduction (%) 14 Days After Application EPHHL
[7] = Helianthus annuus, HELAN: sunflower (Helianthus annuus), read-out: Visual Growth Reduction (%) 14 Days After Application HELAN
[8] = Viola tricolor, VIOTR: wild pansy (Viola tricolor), read-out: Visual Growth Reduction (%) 14 Days After Application VIOTR
[9] = CYPSS, read-out: Visual Growth Reduction (%) 14 Days After Application CYPSS
[10] = DIGSA: crabgrass (Digitaria sanguinalis), read-out: Visual Growth Reduction (%) 14 Days After Application DIGSA
[11] = ECHSS, read-out: Visual Growth Reduction (%) 14 Days After Application ECHSS
[12] = ORYSS (crop), read-out: Visual Growth Reduction (%) 14 Days After Application ORYSS
[13] = SETFA: giant foxtail (Setaria faberi), read-out: Visual Growth Reduction (%) 14 Days After Application SETFA
[14] = SORVU: grain sorghum (Sorghum vulgare), read-out: Visual Growth Reduction (%) 14 Days After Application SORVU
[15] = TRZSS (crop), read-out: Visual Growth Reduction (%) 14 Days After Application TRZSS
[16] = ZEAMX: maize, corn (Zea mays), read-out: Visual Growth Reduction (%) 14 Days After Application ZEAMX
[17] = Amaranthus retroflexus, AMARE: redroot pigweed (Amaranthus retroflexus), read-out: Visual Growth Reduction (%) 14 Days After Application AMARE

Row | Structure (SMILES) | melting point | pest or weed control at 70 g/ha [1, 3] | pest or weed control at 140 g/ha [1, 3] | pest or weed control at 70 g/ha [1, 4] | pest or weed control at 140 g/ha [1, 4] | pest or weed control at 70 g/ha [1, 5] | pest or weed control at 140 g/ha [1, 5] | pest or weed control at 70 g/ha [1, 6] | pest or weed control at 140 g/ha [1, 6] | pest or weed control at 70 g/ha [1, 7] | pest or weed control at 140 g/ha [1, 7] | pest or weed control at 70 g/ha [1, 8] | pest or weed control at 140 g/ha [1, 8] | pest or weed control at 70 g/ha [2, 9] | pest or weed control at 140 g/ha [2, 9] | pest or weed control at 70 g/ha [2, 10] | pest or weed control at 140 g/ha [2, 10] | pest or weed control at 70 g/ha [2, 11] | pest or weed control at 140 g/ha [2, 11] | pest or weed control at 70 g/ha [2, 12] | other results
1 | COC(=O)c1nc(-c2ccc(Cl)nc2F)nc(N)c1Cl [Compound 94] | 192 to 195 °C | 0 to 29% | 30 to 44% | 0 to 29% | 0 to 29% | 60 to 74% | 75 to 84% | 0 to 29% | 0 to 29% | 30 to 44% | 30 to 44% | 0 to 29% | 0 to 29% | 0 to 29% | 0 to 29% | 0 to 29% | 0 to 29% | 0 to 29% | 0 to 29% | 0 to 29% | pest or weed control at 140 g/ha [2, 12]: 0 to 29%; pest or weed control at 70 g/ha [2, 13]: 0 to 29%; pest or weed control at 140 g/ha [2, 13]: 0 to 29%; pest or weed control at 70 g/ha [2, 14]: 0 to 29%; pest or weed control at 140 g/ha [2, 14]: 0 to 29%; pest or weed control at 70 g/ha [2, 15]: 0 to 29%; pest or weed control at 140 g/ha [2, 15]: 0 to 29%; pest or weed control at 70 g/ha [2, 16]: 0 to 29%; pest or weed control at 140 g/ha [2, 16]: 0 to 29%
2 | COC(=O)c1nc(-c2ccc(C(F)(F)F)nc2C)c(F)c(N)c1Cl [Compound 35] | 160 °C | 0 to 29% | 0 to 29% | 0 to 29% | 0 to 29% | 0 to 29% | 0 to 29% | 0 to 29% | 0 to 29% | 0 to 29% | 0 to 29% | 0 to 29% | 0 to 29% | 0 to 29% | 0 to 29% | 0 to 29% | 0 to 29% | 0 to 29% | 0 to 29% | 0 to 29% | pest or weed control at 70 g/ha [1, 17]: 0 to 29%; pest or weed control at 140 g/ha [1, 17]: 0 to 29%; pest or weed control at 140 g/ha [2, 12]: 0 to 29%; pest or weed control at 70 g/ha [2, 13]: 0 to 29%; pest or weed control at 140 g/ha [2, 13]: 0 to 29%; pest or weed control at 70 g/ha [2, 14]: 0 to 29%; pest or weed control at 140 g/ha [2, 14]: 0 to 29%; pest or weed control at 70 g/ha [2, 15]: 0 to 29%; pest or weed control at 140 g/ha [2, 15]: 0 to 29%; pest or weed control at 70 g/ha [2, 16]: 0 to 29%; pest or weed control at 140 g/ha [2, 16]: 0 to 29%
3 | COC(=O)c1nc(-c2ccc(C(F)(F)F)nc2)c(C)c(N)c1Cl [Compound 32] | 145 °C | 45 to 59% | 85 to 94% | 60 to 74% | 75 to 84% | 85 to 94% | 85 to 94% | 0 to 29% | 0 to 29% | 95 to 100% | 95 to 100% | 45 to 59% | 75 to 84% | 95 to 100% | 95 to 100% | 75 to 84% | 75 to 84% | 85 to 94% | 85 to 94% | 0 to 29% | pest or weed control at 70 g/ha [1, 17]: 0 to 29%; pest or weed control at 140 g/ha [1, 17]: 0 to 29%; pest or weed control at 140 g/ha [2, 12]: 0 to 29%; pest or weed control at 70 g/ha [2, 13]: 85 to 94%; pest or weed control at 140 g/ha [2, 13]: 85 to 94%; pest or weed control at 70 g/ha [2, 14]: 60 to 74%; pest or weed control at 140 g/ha [2, 14]: 75 to 84%; pest or weed control at 70 g/ha [2, 15]: 60 to 74%; pest or weed control at 140 g/ha [2, 15]: 60 to 74%; pest or weed control at 70 g/ha [2, 16]: 60 to 74%; pest or weed control at 140 g/ha [2, 16]: 60 to 74%
